{
  "source": "PubChem BioAssay (NCI)",
  "experiment_in_all_cases": "NCI-60 cell line screen, 48 h",
  "key": {"[1]": {"tested_on": "786-0 renal"}, "[2]": {"tested_on": "A498 renal"}, "[3]": {"tested_on": "A549 NSCLC"}, "[4]": {"tested_on": "ACHN renal"}, "[5]": {"tested_on": "BT-549 breast"}, "[6]": {"tested_on": "CAKI-1 renal"}, "[7]": {"tested_on": "CCRF-CEM leukemia"}, "[8]": {"tested_on": "COLO 205 colon"}, "[9]": {"tested_on": "DU-145 prostate"}, "[10]": {"tested_on": "EKVX NSCLC"}, "[11]": {"tested_on": "HCC-2998 colon"}, "[12]": {"tested_on": "HCT-116 colon"}, "[13]": {"tested_on": "HCT-15 colon"}, "[14]": {"tested_on": "HL-60(TB) leukemia"}, "[15]": {"tested_on": "HOP-62 NSCLC"}, "[16]": {"tested_on": "HOP-92 NSCLC"}, "[17]": {"tested_on": "HS 578T breast"}, "[18]": {"tested_on": "HT29 colon"}, "[19]": {"tested_on": "IGROV1 ovarian"}, "[20]": {"tested_on": "K-562 leukemia"}, "[21]": {"tested_on": "KM12 colon"}, "[22]": {"tested_on": "LOX IMVI melanoma"}, "[23]": {"tested_on": "M14 melanoma"}, "[24]": {"tested_on": "MALME-3M melanoma"}, "[25]": {"tested_on": "MCF7 breast"}, "[26]": {"tested_on": "MDA-MB-231 breast"}, "[27]": {"tested_on": "MDA-MB-435"}, "[28]": {"tested_on": "MOLT-4 leukemia"}, "[29]": {"tested_on": "NCI-H226 lung"}},
  "note": "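Method: 48-hour compound exposure of cells in 96-well plates, five concentrations, linear interpolation of endpoints. Here, GI50 denotes the concentration required for 50% inhibition of growth. The concentration for full growth arrest is given as TGI.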",
  "data": [
    {"smiles": "C[C@@H](Nc1c(C#N)cnc2ccc(-c3cnc(N)nc3)cc12)c1ccccc1", "values": [
      {"measurement": "GI50", "setting": "[1]", "value": 1.6, "unit": "µM"},
      {"measurement": "TGI", "setting": "[1]", "value": 36.4, "unit": "µM"},
      {"measurement": "GI50", "setting": "[2]", "value": 0.301, "unit": "µM"},
      {"measurement": "TGI", "setting": "[2]", "value": 3.48, "unit": "µM"},
      {"measurement": "GI50", "setting": "[3]", "value": 1.55, "unit": "µM"},
      {"measurement": "TGI", "setting": "[3]", "value": 13.7, "unit": "µM"},
      {"measurement": "GI50", "setting": "[4]", "value": 0.942, "unit": "µM"},
      {"measurement": "TGI", "setting": "[4]", "value": 40.9, "unit": "µM"},
      {"measurement": "GI50", "setting": "[5]", "value": 1.05, "unit": "µM"},
      {"measurement": "TGI", "setting": "[5]", "value": 6.34, "unit": "µM"},
      {"measurement": "GI50", "setting": "[6]", "value": 0.781, "unit": "µM"},
      {"measurement": "TGI", "setting": "[6]", "value": 11.6, "unit": "µM"},
      {"measurement": "GI50", "setting": "[7]", "value": 1.89, "unit": "µM"},
      {"measurement": "TGI", "setting": "[7]", "value": "> 100", "unit": "µM"},
      {"measurement": "GI50", "setting": "[8]", "value": 3.06, "unit": "µM"},
      {"measurement": "TGI", "setting": "[8]", "value": 13.4, "unit": "µM"},
      {"measurement": "GI50", "setting": "[9]", "value": 1.91, "unit": "µM"},
      {"measurement": "TGI", "setting": "[9]", "value": "> 100", "unit": "µM"},
      {"measurement": "GI50", "setting": "[10]", "value": 0.552, "unit": "µM"},
      {"measurement": "TGI", "setting": "[10]", "value": 5, "unit": "µM"},
      {"measurement": "GI50", "setting": "[11]", "value": 2.78, "unit": "µM"},
      {"measurement": "TGI", "setting": "[11]", "value": "> 100", "unit": "µM"},
      {"measurement": "GI50", "setting": "[12]", "value": 2.46, "unit": "µM"},
      {"measurement": "TGI", "setting": "[12]", "value": 11.1, "unit": "µM"},
      {"measurement": "GI50", "setting": "[13]", "value": 1.74, "unit": "µM"},
      {"measurement": "TGI", "setting": "[13]", "value": 22.6, "unit": "µM"},
      {"measurement": "GI50", "setting": "[14]", "value": 2.07, "unit": "µM"},
      {"measurement": "TGI", "setting": "[14]", "value": "> 100", "unit": "µM"},
      {"measurement": "GI50", "setting": "[15]", "value": 1.98, "unit": "µM"},
      {"measurement": "TGI", "setting": "[15]", "value": 27.8, "unit": "µM"},
      {"measurement": "GI50", "setting": "[16]", "value": 0.185, "unit": "µM"},
      {"measurement": "TGI", "setting": "[16]", "value": 1.11, "unit": "µM"},
      {"measurement": "GI50", "setting": "[17]", "value": 1.19, "unit": "µM"},
      {"measurement": "TGI", "setting": "[17]", "value": 6.82, "unit": "µM"},
      {"measurement": "GI50", "setting": "[18]", "value": 2.43, "unit": "µM"},
      {"measurement": "TGI", "setting": "[18]", "value": "> 100", "unit": "µM"},
      {"measurement": "GI50", "setting": "[19]", "value": 0.454, "unit": "µM"},
      {"measurement": "TGI", "setting": "[19]", "value": 3.87, "unit": "µM"},
      {"measurement": "GI50", "setting": "[20]", "value": 2.49, "unit": "µM"},
      {"measurement": "TGI", "setting": "[20]", "value": "> 100", "unit": "µM"},
      {"measurement": "GI50", "setting": "[21]", "value": 2.67, "unit": "µM"},
      {"measurement": "TGI", "setting": "[21]", "value": "> 100", "unit": "µM"},
      {"measurement": "GI50", "setting": "[22]", "value": 1.64, "unit": "µM"},
      {"measurement": "TGI", "setting": "[22]", "value": 11, "unit": "µM"},
      {"measurement": "GI50", "setting": "[23]", "value": 2.8, "unit": "µM"},
      {"measurement": "TGI", "setting": "[23]", "value": 16.7, "unit": "µM"},
      {"measurement": "GI50", "setting": "[24]", "value": 1.59, "unit": "µM"},
      {"measurement": "TGI", "setting": "[24]", "value": 7.83, "unit": "µM"},
      {"measurement": "GI50", "setting": "[25]", "value": 1.15, "unit": "µM"},
      {"measurement": "TGI", "setting": "[25]", "value": 17.3, "unit": "µM"},
      {"measurement": "GI50", "setting": "[26]", "value": 1.82, "unit": "µM"},
      {"measurement": "TGI", "setting": "[26]", "value": 50.4, "unit": "µM"},
      {"measurement": "GI50", "setting": "[27]", "value": 2.61, "unit": "µM"},
      {"measurement": "TGI", "setting": "[27]", "value": "> 100", "unit": "µM"},
      {"measurement": "GI50", "setting": "[28]", "value": 1.58, "unit": "µM"},
      {"measurement": "TGI", "setting": "[28]", "value": "> 100", "unit": "µM"},
      {"measurement": "GI50", "setting": "[29]", "value": 1.81, "unit": "µM"}
    ]}
  ]
}
